Experimental data: patent US4940716A, “2-amino-tetrahydro-isoquinolene derivatives and a process for the preparation thereof and pharmaceutical compositions containing same” (Chinoin Gyogyszer es Vegyeszeti Termekek Gyara Rt, priority 1987, dated 1990)

Assay: Salidiuretic screening test in rats (Lipschitz method modified by Kagawa and Kalm), 5 mg/kg p.o.
Assay type: in vivo, rats (LATI CFY strain, male)
Details: for K secretion, % of simultaneously measured control / Na secretion, % of simultaneously measured control / Water secretion, % of simultaneously measured control / secreted Na/K: single oral dose 5 mg/kg, rat; for Na/K ratio (in words) / secretion of urine amount and alkali metal ion: 5 mg/kg per os, rats; for secretion of urine amount and alkali metal ion: compared with dihydrochlorothiazide and furosemid
Procedure: Significant diuretic compounds containing an isoquinoline ring system have not been disclosed and therefore it is surprising that the compounds of the Formula (I) show a significant diuretic and saluretic activity. In a screening test carried out in rats (administered per os 5 mg/kg) the compounds according to the invention were compared with dihydrochlorothiazide and furosemid. […] Screen tests were carried out in masculine rats belonging to […] strain weighing at an average 240 g. The animals obtained standard rat nourishment. 16 hours before the experiment the animals were deprived of nourishment but the liquid uptake was not restricted. In order to show diuretic activity the procedure of Lipschitznek modified by Kagawa and Kalm was used. (Arch. Int. Pharmacodyn. 137, 241-249 (1962). The animals were placed into a metabolism cage. The urine collection was carried out in 0-6 and 0-24 hour periods. The control animals were administered 25 cm^3 /kg physiological salt solution through a gastric tube. The test substance was administered to the animals through a gastric tube at a dose of 5 mg/kg in physiological salt solution of an amount corresponding to the amount of physiological salt solution given to the control animals. After 6 hours the animals were administered the same volume of physiological saline solution as the volume excreted with 0-6 hours through a gastric tube. The amount of secreted urine between 0 to 6 and 0 to 24 hours was measured and calculated together with the concentration of sodium and potassium and the Na/K ratio of the urine secreted within a given period. Simultaneously with each test control groups treated with physiological salt solution and hypothiazide were used. Effect of a single oral dose of 5 mg/kg of the compouns on the secretion of water, sodium and potassium within 0-6 and 0-24 hours in the % of the simultaneously measured control values and on the secreted Na/K.

SMILES | K secretion, % of simultaneously measured control (0-6 h) [%] | Na secretion, % of simultaneously measured control (0-6 h) [%] | Water secretion, % of simultaneously measured control (0-6 h) [%] | secreted Na/K (0-6 h, control 1.81) | K secretion, % of simultaneously measured control (0-24 h) [%] | Na secretion, % of simultaneously measured control (0-24 h) [%] | Water secretion, % of simultaneously measured control (0-24 h) [%] | secreted Na/K (0-24 h, control 2.45) | Na/K ratio (in words) | secretion of urine amount and alkali metal ion
CC1c2ccccc2CCN1NC(=O)c1ccc(Cl)c(S(N)(=O)=O)c1 (stereo not drawn) [Example 2, 1-methyl-2-[(3'-sulfamoyl-4'-chloro)-benzoyl]-amino-1,2,3,4-tetrahydro-isoquinoline] | 170 | 279 | 233 | 7.56 | 100 | 151 | 154 | 5.38 | favorable | particularly advantageous
NS(=O)(=O)c1cc2c(cc1Cl)NCNS2(=O)=O [Hypothiazide, reference compound] | 117 | 187 | 159 | 3.90 | 109 | 123 | 119 | 3.50 |  | 
NS(=O)(=O)c1cc(C(=O)NN2CCc3ccccc3C2)ccc1Cl [Example 1, 2-[(3'-sulfamoyl-4'-chloro)-benzoyl]-amino-1,2,3,4-tetrahydro-isoquinoline] | 145 | 260 | 216 | 9.09 | 82 | 152 | 148 | 5.94 | favorable | particularly advantageous
COc1cc2c(cc1OC)C(C)N(NC(=O)c1ccc(Cl)c(S(N)(=O)=O)c1)CC2 (stereo not drawn) [Example 3, 1-methyl-2-[(3'-sulfamoyl-4'-chloro-benzoyl)-amino]-6,7-dimethoxy-1,2,3,4-tetrahydro-isoquinoline-monohydrate] | 104 | 186 | 147 | 4.74 | 84 | 121 | 112 | 3.99 |  | 
